The results in this text go back to EPA's ToxValDB 9.5 (doi:10.2903/j.efsa.2009.262r).

For one data set, the system named is Aphidius rhopalosiphi. The data set is described as follows: LR50; higher = less toxic. Conditions: not reported; mortality.
A further data set relates to Typhlodromus pyri. As to the kind of experiment: LR50; higher = less toxic. Conditions: not reported; mortality.
The next data set concerns Rattus norvegicus. The note with it: for NOAEL: clinical chemistry.
A further data set concerns Daphnia magna. Conditions: chronic/long-term; duration: 21 days.
The subject of a further data set is Oryctolagus sp. The note with it: reproduction developmental; reproduction.
A further data set deals with Bibionidae. The note with it: chronic/long-term; duration: 28 days.
In another data set the test system is Apis mellifera. Conditions: acute, mortality.

In brackets after ≈: the same amount, converted by molar mass. Some results are limits rather than exact numbers.

What is called NOAEL is the highest tested level that showed no adverse finding. Consider `CCOP(=O)(SC(C)CC)SC(C)CC` (configuration not stated) [Cadusafos], for which the LR50 in the data set on Aphidius rhopalosiphi is 3.75 g/ha; in the data set with Typhlodromus pyri, 44.4 g/ha. In addition, the LD50 in the data set on Rattus norvegicus (acute, oral, mortality) was found to be 37.1 mg/kg; in the data set with Apis mellifera (dermal), 1.8 µg/piece; with Apis mellifera (oral, unspecified), 2.07 µg/piece; in the data set with Colinus virginianus (acute, oral, mortality), 16.1 mg/kg-day. Besides, the no observed adverse effect level (NOAEL) with Rattus norvegicus (chronic, duration: 2 years, F) was determined as 0.045 mg/kg-day; in the data set with Rattus norvegicus (subchronic, duration: 90 days, oral) it was 0.067 mg/kg-day; with Oryctolagus sp., 0.3 mg/kg-day. Also, the NOEC with Daphnia magna was 0.231 µg/L; in the data set on Oncorhynchus mykiss (chronic/long-term, duration: 95 days) it was 5.22 µg/L; with Tagia sp. (chronic/long-term), 1.8 mg/kg; in the data set with Bibionidae, 32 µg/kg. The LC50 with Oncorhynchus mykiss (acute, duration: 96 hours, mortality) was determined as 0.13 mg/L (≈ 0.481 µM); in the data set with Tagia sp. (acute, mortality) it was 7.2 mg/kg; in the data set on Colinus virginianus (acute, oral, diet, mortality) it was 10.8 mg/kg-day. Further, in the data set with Colinus virginianus (reproduction developmental), the NOEL is ≥ 1.1 mg/kg-day.
